We go through 3 molecules from PMC4373884, “Crystal Structures of the Kinase Domain of the Sulfate-Activating Complex in Mycobacterium tuberculosis” (PLoS ONE, 2015).

Assay [1] addresses T1, CysC (APS kinase domain of CysN) (Mycobacterium tuberculosis, UniProt P9WNM5).
T1 construct: gene cysNC

Assay [2] concerns the target T1, CysC (APS kinase domain of CysN). The source holds these as a separate data set.

T1 sequence (P9WNM5 424-612): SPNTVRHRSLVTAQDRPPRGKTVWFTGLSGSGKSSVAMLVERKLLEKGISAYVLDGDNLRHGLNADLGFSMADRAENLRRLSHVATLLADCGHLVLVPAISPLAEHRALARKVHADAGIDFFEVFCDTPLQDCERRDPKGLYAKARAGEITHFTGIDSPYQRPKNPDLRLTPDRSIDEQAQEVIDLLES

On to `Nc1ncnc2c1ncn2[C@@H]1O[C@H](COP(=O)(O)OP(=O)(O)O)[C@@H](O)[C@H]1O` [ADP], for which the X-ray crystal structure entry in assay [1] is on record as “The electron density maps clearly show the presence of one molecule of ADP per subunit”.

For the molecule `Nc1ncnc2c1ncn2[C@@H]1O[C@H](COP(=O)(O)OP(=O)(O)NP(=O)(O)O)[C@@H](O)[C@H]1O` [AMP-PNP], the X-ray crystal structure result in assay [1] was “The bound ligands AMP-PNP and APS are well defined in electron density”. `Nc1ncnc2c1ncn2[C@@H]1O[C@H](COP(=O)(O)OP(=O)(O)OP(=O)(O)O)[C@@H](O)[C@H]1O` [ATP]: the “ADP-Glo luminescence kinase assay” value in assay [2] is “The CysC domain used in this study is catalytically active and shows APS kinase activity”.
